ChEMBL document CHEMBL5506055, “Hit-to-Lead Optimization of the Natural Product Oridonin as Novel NLRP3 Inflammasome Inhibitors with Potent Anti-Inflammation Activity” (J Med Chem, 2024)
Active and inactive are the calls of the source. No cut-off for these calls is given here.

Columns and labels:
[1] = biological target: NACHT, LRR and PYD domains-containing protein 3 (Mus musculus) (UniProt Q8R4B8); experiment: (§1) Inhibition of NLRP3 inflammasome activation in LPS/ATP-induced C57BL/6 mouse BMDMs assessed as inhibition of ASC oligomerization by measuring reduction in ASC expression at 50 to 200 nM preincubated with LPS for 4 hrs followed by compound addition for 30 mins and further stimulated with ATP for 30 mins by Western blotting analysis; assay type: cell-based; settings: BMDM, dose 50-200 nM, time 1.0 hrs
[2] = biological target: hERG (KCNH2) (Homo sapiens, UniProt Q12809); experiment: Inhibition of human ERG expressed in CHO cells at 40 uM relative to control; assay type: toxicity, cell-based; settings: CHO cells that express human ERG
[3] = biological target: NACHT, LRR and PYD domains-containing protein 3 (Mus musculus) (UniProt Q8R4B8); experiment: as §1, with “in pro-caspase-1” for “in ASC”; assay type: cell-based; settings: BMDM, dose 50-200 nM, time 1.0 hrs
[4] = biological target: NACHT, LRR and PYD domains-containing protein 3 (Mus musculus) (UniProt Q8R4B8); experiment: Binding affinity to NLRP3 in mouse BMDMs at 100 uM incubated for 30 mins by CETSA; assay type: cell-based; settings: BMDM
[5] = biological target: NLRP3-NEK7 (Mus musculus) (UniProt Q8R4B8+Q9ES74); experiment: Inhibition of NLRP3/NEK7 protein-protein interaction in LPS/ATP-induced C57BL/6 mouse BMDMs at 200 nM preincubated with LPS for 4 hrs followed by compound addition for 30 mins and further stimulated with ATP for 30 mins by Western blotting analysis; assay type: cell-based; settings: BMDM, time 1.0 hrs
[6] = biological target: NACHT, LRR and PYD domains-containing protein 3 (Mus musculus) (UniProt Q8R4B8); experiment: Inhibition of NLRP3 inflammasome activation in LPS-induced C57BL/6 mouse BMDMs assessed as effect on p65 expression at 50 to 200 nM preincubated for 24 hrs followed by LPS addition for 4 hrs by Western blotting analysis; assay type: cell-based; settings: BMDM, dose 50-200 nM, time 28.0 hrs
[7] = biological target: NACHT, LRR and PYD domains-containing protein 3 (Mus musculus) (UniProt Q8R4B8); experiment: Inhibition of NLRP3 inflammasome activation in LPS/MSU-induced C57BL/6 mouse BMDMs at 200 nM preincubated with LPS for 4 hrs followed by compound addition for 30 mins and further stimulated with MSU for 6 hrs by ELISA; assay type: cell-based; settings: BMDM, time 6.5 hrs
[8] = biological target: NACHT, LRR and PYD domains-containing protein 3 (Mus musculus) (UniProt Q8R4B8); experiment: as §1, with “in NLRP3” for “in ASC”; assay type: cell-based; settings: BMDM, dose 50-200 nM, time 1.0 hrs
[9] = biological target: NACHT, LRR and PYD domains-containing protein 3 (Mus musculus) (UniProt Q8R4B8); experiment: Inhibition of NLRP3 inflammasome activation in LPS/ATP-induced C57BL/6 mouse BMDMs assessed as reduction in maturation of pro-caspase-1 preincubated with LPS for 4 hrs followed by compound addition for 30 mins and further stimulated with ATP for 30 mins by ELISA; assay type: cell-based; settings: BMDM, time 1.0 hrs
[10] = biological target: NLR family CARD domain-containing protein 4 (Mus musculus) (UniProt Q3UP24); experiment: Inhibition of NLRC4 inflammasome activation in LPS/Poly(dA:dT)-induced C57BL/6 mouse BMDMs at 200 nM […] for 4 hrs followed by compound addition for 30 mins and further Poly(dA:dT) transfected with Lipo-3000 for 4 hrs; assay type: cell-based; settings: BMDM, time 4.5 hrs
[11] = biological target: NACHT, LRR and PYD domains-containing protein 3 (Mus musculus) (UniProt Q8R4B8); experiment: Inhibition of NLRP3 inflammasome activation in LPS-induced C57BL/6 mouse BMDMs assessed as reduction in IL-1beta level preincubated with Pam3CSK4 for 3 hrs followed by compound addition for 30 mins and further LPS transfected with Lipo-3000 for 16 hrs by ELISA; assay type: cell-based; settings: BMDM, dose 50-200 nM, time 16.5 hrs
[12] = Half-life in ICR mouse at 10 mg/kg, po measured upto 24 hrs by LC-MS/MS method; assay type: ADME, organism-based; settings: in vivo
[13] = Clearance in ICR mouse at 1 mg/kg, iv measured upto 24 hrs by LC-MS/MS method; assay type: ADME, organism-based; settings: in vivo
[14] = tested on: Mus musculus; experiment: Antiinflammatory activity in C57BL/6 mouse model of arthritis assessed as reduction in MSU-induced TNFalpha secretion at 12.5 to 25 mg/kg, iv measured upto 24 hrs; assay type: functional, organism-based; settings: dose 12.5-25 mg/kg
[15] = biological target: NACHT, LRR and PYD domains-containing protein 3 (Mus musculus, UniProt Q8R4B8); experiment: Inhibition of NLRP3 inflammasome activation in LPS/ATP-induced C57BL/6 mouse BMDMs assessed as reduction in IL-1beta secretion preincubated with LPS for 4 hrs followed by compound addition for 30 mins and further stimulated with ATP for 30 mins by ELISA; assay type: cell-based, BMDM
[16] = Cmax in ICR mouse at 10 mg/kg, po measured upto 24 hrs by LC-MS/MS method; assay type: ADME, organism-based; settings: in vivo
[17] = tested on: BMDM; experiment: Inhibition of mitochondrial ROS production in mouse BMDMs at 200 nM preincubated with LPS for 4 hrs followed by compound addition for 30 mins and further stimulated with ATP for 30 mins by confocal microscopic analysis; assay type: functional, cell-based; settings: time 1.0 hrs
[18] = biological target: T1, Interferon-inducible protein AIM2 (Mus musculus) (UniProt Q91VJ1); experiment: Inhibition of AIM2 inflammasome activation in LPS/flagellin-induced C57BL/6 mouse BMDMs at 200 nM […] for 4 hrs followed by compound addition for 30 mins and further stimulated with flagellin for 4 hrs; assay type: cell-based; settings: BMDM, time 4.5 hrs
T1 sequence (whole entry): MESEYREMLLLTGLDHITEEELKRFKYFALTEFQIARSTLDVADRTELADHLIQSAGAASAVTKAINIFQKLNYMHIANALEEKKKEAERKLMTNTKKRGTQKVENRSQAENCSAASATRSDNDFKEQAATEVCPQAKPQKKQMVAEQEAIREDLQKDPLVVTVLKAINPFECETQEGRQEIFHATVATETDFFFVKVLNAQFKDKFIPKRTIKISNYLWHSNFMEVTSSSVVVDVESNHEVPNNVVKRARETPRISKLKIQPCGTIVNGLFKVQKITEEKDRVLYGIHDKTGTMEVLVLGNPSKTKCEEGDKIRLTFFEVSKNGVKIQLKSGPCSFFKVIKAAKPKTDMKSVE

[19] = biological target: NACHT, LRR and PYD domains-containing protein 3 (Mus musculus) (UniProt Q8R4B8); experiment: Inhibition of NLRP3 inflammasome activation in LPS-induced C57BL/6 mouse BMDMs assessed as effect on phosphorylated p65 expression at 50 to 200 nM preincubated for 24 hrs followed by LPS addition for 4 hrs by Western blotting analysis; assay type: cell-based; settings: BMDM, dose 50-200 nM, time 28.0 hrs
[20] = tested on: Mus musculus; experiment: Antiinflammatory activity in C57BL/6 mouse model of arthritis assessed as reduction in MSU-induced joint swelling at 12.5 to 25 mg/kg, iv measured upto 24 hrs; assay type: functional, organism-based; settings: dose 12.5-25 mg/kg
[21] = AUC in ICR mouse at 10 mg/kg, po measured upto 24 hrs by LC-MS/MS method; assay type: ADME, organism-based; settings: in vivo, po, 10 mg/kg, 24 h
[22] = biological target: NACHT, LRR and PYD domains-containing protein 3 (Mus musculus) (UniProt Q8R4B8); experiment: Inhibition of NLRP3 inflammasome activation in LPS/alum-induced C57BL/6 mouse BMDMs at 200 nM preincubated with LPS for 18 hrs followed by compound addition for 30 mins and further stimulated with alum for 8 hrs by ELISA; assay type: cell-based; settings: BMDM, time 8.5 hrs
[23] = biological target: Voltage-gated inwardly rectifying potassium channel KCNH2 (Homo sapiens, UniProt Q12809); experiment: Inhibition of human ERG expressed in CHO cells; assay type: toxicity, cell-based
[24] = Stability in mouse liver microsomes assessed as half life preincubated for 5 mins with NADPH followed by compound addition and measured upto 120 mins by LC-MS/MS analysis; assay type: ADME, Microsome; settings: time < 125 min

Chain of NACHT, LRR and PYD domains-containing protein 3 (Mus musculus) (Q8R4B8 whole entry, the tested form may be a part): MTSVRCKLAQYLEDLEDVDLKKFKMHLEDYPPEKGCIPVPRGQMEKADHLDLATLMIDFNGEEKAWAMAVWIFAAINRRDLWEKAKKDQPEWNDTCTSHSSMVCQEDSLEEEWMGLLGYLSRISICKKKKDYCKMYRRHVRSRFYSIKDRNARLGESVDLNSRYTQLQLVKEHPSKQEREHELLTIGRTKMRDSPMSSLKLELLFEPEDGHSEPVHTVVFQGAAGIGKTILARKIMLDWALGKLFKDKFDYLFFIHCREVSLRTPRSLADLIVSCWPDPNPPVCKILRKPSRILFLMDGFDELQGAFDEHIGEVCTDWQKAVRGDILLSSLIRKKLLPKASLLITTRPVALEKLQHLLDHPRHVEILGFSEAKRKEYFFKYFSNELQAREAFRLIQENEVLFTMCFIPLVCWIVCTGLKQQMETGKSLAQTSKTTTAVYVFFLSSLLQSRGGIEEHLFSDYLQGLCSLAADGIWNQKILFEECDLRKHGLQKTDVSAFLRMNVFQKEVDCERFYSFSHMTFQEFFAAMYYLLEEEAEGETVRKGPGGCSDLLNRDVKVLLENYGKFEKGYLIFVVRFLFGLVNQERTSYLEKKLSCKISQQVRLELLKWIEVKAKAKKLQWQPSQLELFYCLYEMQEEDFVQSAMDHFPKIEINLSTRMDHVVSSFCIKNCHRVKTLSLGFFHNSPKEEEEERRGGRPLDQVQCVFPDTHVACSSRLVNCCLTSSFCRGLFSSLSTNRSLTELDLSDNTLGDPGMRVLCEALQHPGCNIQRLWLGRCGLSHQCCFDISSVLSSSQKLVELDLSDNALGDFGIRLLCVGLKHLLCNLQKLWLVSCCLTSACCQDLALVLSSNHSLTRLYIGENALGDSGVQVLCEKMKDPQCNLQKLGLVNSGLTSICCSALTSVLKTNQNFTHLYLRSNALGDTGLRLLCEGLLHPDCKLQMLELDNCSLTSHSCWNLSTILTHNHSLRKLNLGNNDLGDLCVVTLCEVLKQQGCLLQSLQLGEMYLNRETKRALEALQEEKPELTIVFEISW
Chain of Voltage-gated inwardly rectifying potassium channel KCNH2 (Q12809 whole entry): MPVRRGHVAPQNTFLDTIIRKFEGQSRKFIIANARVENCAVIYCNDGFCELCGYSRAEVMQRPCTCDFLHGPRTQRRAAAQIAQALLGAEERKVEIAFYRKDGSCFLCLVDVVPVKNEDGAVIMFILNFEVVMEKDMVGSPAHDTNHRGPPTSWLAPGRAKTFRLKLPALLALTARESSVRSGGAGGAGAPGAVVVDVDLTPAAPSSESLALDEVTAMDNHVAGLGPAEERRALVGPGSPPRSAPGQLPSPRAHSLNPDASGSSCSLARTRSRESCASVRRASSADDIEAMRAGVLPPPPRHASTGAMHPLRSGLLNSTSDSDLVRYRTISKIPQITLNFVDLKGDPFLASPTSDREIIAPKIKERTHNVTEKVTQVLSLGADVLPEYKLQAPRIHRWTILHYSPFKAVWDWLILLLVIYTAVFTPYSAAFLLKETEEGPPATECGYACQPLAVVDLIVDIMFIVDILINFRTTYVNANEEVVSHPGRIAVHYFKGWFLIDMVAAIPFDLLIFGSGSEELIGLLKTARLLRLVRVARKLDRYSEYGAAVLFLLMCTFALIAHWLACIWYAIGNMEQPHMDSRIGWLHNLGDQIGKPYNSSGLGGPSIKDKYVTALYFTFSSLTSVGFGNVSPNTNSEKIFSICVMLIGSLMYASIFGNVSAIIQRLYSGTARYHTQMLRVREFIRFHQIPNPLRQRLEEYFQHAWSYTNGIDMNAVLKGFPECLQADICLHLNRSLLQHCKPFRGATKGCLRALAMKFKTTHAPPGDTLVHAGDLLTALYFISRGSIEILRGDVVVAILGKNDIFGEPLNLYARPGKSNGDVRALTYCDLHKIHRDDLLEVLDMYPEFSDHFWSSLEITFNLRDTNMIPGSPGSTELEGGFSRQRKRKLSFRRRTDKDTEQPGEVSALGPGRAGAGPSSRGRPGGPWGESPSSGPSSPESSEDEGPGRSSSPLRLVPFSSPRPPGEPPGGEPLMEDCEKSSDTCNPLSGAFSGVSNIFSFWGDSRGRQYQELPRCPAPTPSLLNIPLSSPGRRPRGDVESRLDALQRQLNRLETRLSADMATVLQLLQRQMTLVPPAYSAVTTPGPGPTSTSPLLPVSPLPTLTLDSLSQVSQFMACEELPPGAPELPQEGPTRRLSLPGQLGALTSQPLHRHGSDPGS
Chain of hERG (KCNH2) (Q12809 whole entry, the tested form may be a part): as the sequence (Q12809 whole entry) above
Chain of NLR family CARD domain-containing protein 4 (Mus musculus) (Q3UP24 whole entry, the tested form may be a part): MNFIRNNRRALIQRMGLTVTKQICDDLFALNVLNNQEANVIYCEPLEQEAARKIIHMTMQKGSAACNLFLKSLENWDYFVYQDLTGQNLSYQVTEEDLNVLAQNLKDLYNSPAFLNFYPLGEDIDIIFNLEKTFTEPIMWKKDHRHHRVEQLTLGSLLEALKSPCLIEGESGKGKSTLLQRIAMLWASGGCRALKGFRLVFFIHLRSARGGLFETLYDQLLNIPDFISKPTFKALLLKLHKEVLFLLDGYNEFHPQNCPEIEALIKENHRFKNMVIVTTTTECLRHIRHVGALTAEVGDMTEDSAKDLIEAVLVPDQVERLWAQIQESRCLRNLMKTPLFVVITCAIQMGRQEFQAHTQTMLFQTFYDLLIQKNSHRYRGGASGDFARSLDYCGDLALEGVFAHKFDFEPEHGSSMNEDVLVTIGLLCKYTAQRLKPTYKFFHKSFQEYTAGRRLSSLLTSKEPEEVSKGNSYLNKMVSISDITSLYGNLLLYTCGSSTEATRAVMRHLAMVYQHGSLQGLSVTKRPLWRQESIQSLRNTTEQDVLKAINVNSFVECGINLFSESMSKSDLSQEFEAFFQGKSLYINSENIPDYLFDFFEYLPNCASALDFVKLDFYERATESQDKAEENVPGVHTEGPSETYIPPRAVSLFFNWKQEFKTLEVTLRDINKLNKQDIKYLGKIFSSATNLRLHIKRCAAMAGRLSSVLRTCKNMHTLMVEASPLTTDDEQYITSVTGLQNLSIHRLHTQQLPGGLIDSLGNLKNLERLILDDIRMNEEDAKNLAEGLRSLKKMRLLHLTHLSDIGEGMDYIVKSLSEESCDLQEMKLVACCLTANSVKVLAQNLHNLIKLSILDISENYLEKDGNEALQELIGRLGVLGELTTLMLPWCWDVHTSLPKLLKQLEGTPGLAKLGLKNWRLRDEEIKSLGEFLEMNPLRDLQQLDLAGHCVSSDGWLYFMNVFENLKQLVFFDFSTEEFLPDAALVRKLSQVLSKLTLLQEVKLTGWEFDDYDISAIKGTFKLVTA
Chain of NACHT, LRR and PYD domains-containing protein 3 (Q8R4B8 whole entry, the tested form may be a part): as the sequence (Q8R4B8 whole entry, the tested form may be a part) above
Chain of NLRP3-NEK7 (Mus musculus) (Q8R4B8 whole entry, looked up, the tested form may be a part): as the sequence (Q8R4B8 whole entry, the tested form may be a part) above
Chain of NLRP3-NEK7 (Mus musculus) (Q9ES74 whole entry, looked up, the tested form may be a part): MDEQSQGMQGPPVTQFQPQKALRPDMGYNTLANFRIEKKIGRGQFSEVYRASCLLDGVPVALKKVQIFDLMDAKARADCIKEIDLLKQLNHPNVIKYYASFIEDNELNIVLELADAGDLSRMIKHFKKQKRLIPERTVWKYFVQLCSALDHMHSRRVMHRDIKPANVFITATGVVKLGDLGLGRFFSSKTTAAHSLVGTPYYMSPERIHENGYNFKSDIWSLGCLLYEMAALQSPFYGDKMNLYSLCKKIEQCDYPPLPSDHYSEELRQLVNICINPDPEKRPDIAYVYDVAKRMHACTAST

inhibition [1]: inactive
inhibition [3]: inactive
Activity [4]: Active
inhibition [5]: Active
inhibition [6]: inactive
inhibition [7]: Active
inhibition [8]: inactive
inhibition [9]: Dose-Dependent Effect
inhibition [10]: Active
inhibition [11]: Dose-Dependent Effect
half-life [12]: 1.6 h
clearance [13]: 69.1 mL/min/kg
IC50 [15]: 77.2 nM
Cmax [16]: 279 ng/mL
inhibition [18]: Active
inhibition [19]: inactive
AUC [21]: 525.5 ng·h/mL
inhibition [22]: Active
half-life [24]: 3.07 h
SMILES: C=C1C(=O)[C@]23[C@H](O)[C@H]1CC[C@H]2[C@]12C=CCC(C)(C)[C@H]1[C@H](O)[C@@]3(OCCC(=O)O)OC2
inhibition at 40 µM [2]: 22%
Activity [14]: Active
inhibition [17]: inactive
Activity [20]: Active
IC50 [23]: > 40000 nM
